Test results from patent US20090165150A1, “DIRECTED COMPLEMENTATION WITH REMOVABLE GENE OF INTEREST” (priority 2007, published 2009).

What was measured:
DC tumors = assay: Xenograft of DC tumor cells (pL-Her2^YVMA complemented) in NCR nude mice maintained off doxycycline; type: in vivo, mouse; conditions: 5 mice bearing DC tumors, Tamoxifen IP for 8 consecutive days, observed up to a month, untreated group had tumors within 10 days
Procedure: Minced DC tumor was thawed at 37° C. and cells were dissociated by passing through cell strainers (100 μm filters, BD Falcon Cat. No. 352360). The cells were collected and centrifuged at 1000 rpm for 5 minutes, washed twice with PBS and counted using hemocytometer and resuspended in one part PBS (Gibco Cat. No. 24020-117) to one part Matrigel (BD Cat. No. 3542334) for injections.
(§1) Tamoxifen treatment: To activate CreER^T2 and induce Cre mediated recombination (i.e., excision) between loxP sites, animals were treated with 0.1 ml tamoxifen (10 mg/ml in corn oil) through intraperitoneal (IP) injection for […].
(§2) About 0.1 million DC tumor cells were injected subcutaneously into 10 NCR nude mice on the right flank. These mice were maintained off doxycycline. Similarly 10 NCR nude mice were inoculated with archived BHc tumor and maintained on doxycycline. These mice were divided into 4 groups.
The fourth group contained of 5 mice bearing DC tumors. They were treated with Tamoxifen for 8 consecutive days.

BHc tumors = assay: Xenograft of archived BHc tumor in NCR nude mice maintained on doxycycline; type: in vivo, mouse; conditions: 5 mice bearing BHc tumors, Tamoxifen IP for 8 consecutive days
Procedure: as §1, §2
The second group contained of 5 mice bearing BHc tumors. They were treated with Tamoxifen for 8 consecutive days.

In the case of CC/C(=C(\c1ccccc1)c1ccc(OCCN(C)C)cc1)c1ccccc1 [Tamoxifen, tamoxifen], the tumor formation (DC tumors) is reported as “Tumors were never observed”, the “tumor growth compared with untreated group” value (BHc tumors) is reported as “grew slower than group 1” and the “time until tumors were observed” value (BHc tumors; all 5 mice, untreated group within 10 days) is reported as at most 12 days.
